From ChEMBL document CHEMBL1201862, “PubChem BioAssay data set” (2004) come the findings set out here.

The source made the active and inactive calls. Rule as the data show it, for most assays here: actives have a measured EC50 and inactives only a lower limit. Some results are limits rather than exact numbers.

A short description of experiment [1]: Luminescence Cell-Based Dose Retest to Confirm Inhibitors of Cancer Stem Cells. [Related pubchem assays (depositor defined):AID2717, AID2721]. The experiment is classed as functional. The conditions noted are these: Homo sapiens.
Experiment [2] can be described thus: viability of uninfected HEp-2 cells – cell-based, HTS, cytotoxicity control for RSV inhibitor project, dose response (AID 2410). The experiment is classed as functional. The conditions noted are these: human respiratory syncytial virus.
The nature of experiment [3]: NIH3T3 cell viability loss – ATP luminescence, mouse fibroblasts, counter-screen, dose response (AID 2010).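 Also: cells exposed to compound for about 90 hours before reading.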 The experiment is classed as functional, cell-based.
Experiment [4] can be described thus: Trypanosoma cruzi growth suppression in host cells – NIH3T3 host cells, beta-gal luminescence, confirmation (AID 2044).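 Also: intracellular parasites grown in NIH/3T3 mouse fibroblasts as host cells; luminescent beta-galactosidase reporter signal from transgenic T. cruzi replicating inside host cells; inhibitors lower the luminescence signal.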 The experiment is classed as functional, cell-based.
The nature of experiment [5]: luciferase reporter signal suppression in cells – H4 neuroglioma cells, luminescence, dose response (AID 1990). The experiment is classed as functional, cell-based.
The nature of experiment [6]: Luminescence Cell-Based Dose Response HTS to Identify Inhibitors of 5'UTR Stem-Loop Driven Prion Protein mRNA Translation in H4 Neuroglioblastoma Cells. [Related pubchem assays: 1827 (Project Summary), 1813 (Primary HTS)]. The experiment is classed as functional.
Experiment [7] can be described thus: alpha-synuclein stem-loop luciferase translation blockers – H4 neuroglioma cells, luminescence, confirmation (AID 1988). The experiment is classed as functional, cell-based.
A further experiment relates to Streptococcus. As to the kind of experiment: GAS UMAA2166 growth inhibition – luminescence, BacTiterGlo, counter-screen for streptokinase expression inhibitor project, dose response (AID 1915).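 Also: potency for reduction of bacterial viability or growth.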 The experiment is classed as functional, organism-based.
Experiment [8] has as its system Streptococcus sp. 'group A'. As to the kind of experiment: Streptococcus pyogenes SK(-)GAS viability under kanamycin – luminescence, BacTiterGlo, confirmation, counter-screen for streptokinase expression inhibitor project, dose response (AID 1900). The experiment is classed as functional, organism-based.
Experiment [9] can be described thus: NIH-3T3 fibroblast cytotoxicity, dose response, cytotoxicity control, cell-based, fluorescence, Alamar Blue, secondary assay (AID 2327).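 Also: NIH-3T3 mouse fibroblasts cultured with fluconazole at 8 µg/mL.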 The experiment is classed as functional.
Experiment [10] concerns the target T1, Rac GTPase-activating protein 1 (Homo sapiens, UniProt Q9H0H5).
T1 sequence (Q9H0H5 whole entry): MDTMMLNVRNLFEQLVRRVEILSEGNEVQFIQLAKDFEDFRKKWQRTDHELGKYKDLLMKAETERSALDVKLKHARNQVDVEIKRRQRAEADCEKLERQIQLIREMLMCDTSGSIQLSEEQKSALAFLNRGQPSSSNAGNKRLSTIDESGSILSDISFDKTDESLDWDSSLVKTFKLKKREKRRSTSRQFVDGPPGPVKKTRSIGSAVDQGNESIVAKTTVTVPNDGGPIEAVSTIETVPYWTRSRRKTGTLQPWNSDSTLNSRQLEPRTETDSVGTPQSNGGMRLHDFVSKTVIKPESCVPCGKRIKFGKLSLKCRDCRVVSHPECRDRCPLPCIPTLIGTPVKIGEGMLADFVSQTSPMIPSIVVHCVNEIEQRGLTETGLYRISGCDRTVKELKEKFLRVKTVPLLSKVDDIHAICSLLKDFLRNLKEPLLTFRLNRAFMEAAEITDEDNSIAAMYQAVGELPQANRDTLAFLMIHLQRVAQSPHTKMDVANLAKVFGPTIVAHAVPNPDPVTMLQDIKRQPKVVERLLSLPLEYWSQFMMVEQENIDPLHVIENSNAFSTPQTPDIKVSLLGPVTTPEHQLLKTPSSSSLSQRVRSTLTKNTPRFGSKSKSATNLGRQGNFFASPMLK
As to the kind of experiment: blockers of MgcRacGAP-driven Rac1 GTP hydrolysis – biochemical, ADP Hunter fluorescence, primary and confirmatory, confirmation (AID 624330). The experiment is classed as functional.
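For AC50 in this document: cells exposed to compound for roughly 70 hours or longer before luminescence read.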

For the compound `Cc1cc(SCC(=O)c2cccs2)n2nc(C)c(-c3ccc(Cl)cc3)c2n1`, the AC50 in experiment [1] was 18.1 µM (active).

`CCOc1ccc(C(=O)Nc2ccc(S(=O)(=O)N3C[C@@H]4C[C@@H](C3)c3cccc(=O)n3C4)cc2)cc1`: the CC50 in experiment [2] is 23.7 µM (active).

Take `Cc1nnc(N2CCC(C(=O)N3CCCCCC3)CC2)c2nn(-c3ccc(Cl)cc3)c(C)c12`: the CC50 in experiment [2] was 21.9 µM (active).

As to `CCOC(=O)c1c(C)oc2ccc(NS(=O)(=O)c3ccc4c5c(cccc35)C(=O)N4)cc12`, the half-maximal cytotoxic concentration (CC50) in experiment [2] is 7.08 µM (active).

For the compound `CCCCc1ccc(/C(C)=N/Nc2cc(N3CCOCC3)nc(C)n2)cc1`, in experiment [1], the AC50 was 3.08 µM (active). Also, the EC50 was > 60 µM (not active) in experiment [3] and 2.06 µM (active) in experiment [4].

Consider `Cc1ccc(NC(=O)CN(C)CC(=O)Nc2ccc(F)c(F)c2F)c(Cl)c1`, for which the concentration for a half-maximal effect (EC50) in experiment [5], in experiment [6] and in [7] was > 120 µM (not active) in each case.

For `Cc1ccc(C(=O)Nc2nc(C(C)(C)C)cs2)s1`, in [2], the half-maximal cytotoxic concentration (CC50) is 3.25 µM (active).

Turning to `C[C@@H]1CN([C@H](C)CO)C(=O)Cc2cc(NS(=O)(=O)c3ccc(Cl)cc3)ccc2O[C@H]1CN(C)Cc1ccc(C(F)(F)F)cc1`, in experiment [1], the AC50 is 3.11 µM (active).

In the case of `O=C(NN1C(=O)NC2(CCCCC2)C1=O)c1ccc(-c2ccc(Cl)cc2)o1`, the 50% cytotoxic concentration (CC50) in [2] is 22.3 µM (active).

Take `CCCCCSc1nc(N2CCOCC2)c2c(c1C#N)CC(C)(C)OC2`: the EC50 is > 120 µM (not active) in experiment [5], 19.8 µM (active) in experiment [6] and > 120 µM (not active) in [7].

On to `O=C(NCc1ccc(F)cc1)C(=O)Nc1nc(C23CC4CC(CC(C4)C2)C3)cs1`, for which the AC50 in experiment [1] is 1.91 µM (active). Moreover, the EC50 with Streptococcus was 2.55 µM (active); in experiment [8] it was 0.823 µM (active).

With `O=C(CN1CCN(S(=O)(=O)c2ccc3ccccc3c2)CC1)N1CCc2ccccc2C1`, the figures for the 50% effective concentration (EC50) in [5], in experiment [6] and in experiment [7] were 14.4 µM (active), 23 µM (active) and > 120 µM (not active), respectively. In experiment [2], the 50% cytotoxic concentration (CC50) was 25.3 µM (active).

Take `CC1(C)CC2CC(C)(CN2/C=N/c2sc3c(c2C#N)CC(C)(C)NC3(C)C)C1` (stereo not drawn): the half-maximal activity concentration (AC50) in experiment [1] is 1.04 µM (active).

With `COc1ccc(C(=O)NNc2ccccc2)cc1OC`, the AC50 in experiment [1] was 0.825 µM (active). In experiment [9], the 50% effective concentration (EC50) was 7.89 µM (active).

As to `CC1=C(C(=O)OC2CCCC2)C(c2coc3ccccc3c2=O)C2=C(O)CC(C)(C)CC2=N1` (stereo not drawn), in experiment [1], the AC50 was 97.3 µM (active).

Turning to `O=C(CSC1=N/C(=C/c2ccc(Cl)c(Cl)c2)C(=O)N1c1ccccc1F)NC1CC1`, the CC50 in [2] is 24 µM (active).

Take `COc1ccc(CCNC(=O)c2coc(=O)c(Br)c2)cc1`: the AC50 in [1] is 7.39 µM (active).

Consider `COc1ccc(-c2nn(-c3ccccc3)cc2/C=C/C(=O)NCCCn2ccnc2)cc1OC`, for which the concentration for a half-maximal effect (EC50) in experiment [5] was > 120 µM (not active); in experiment [6], > 120 µM (not active); in [7], > 60 µM (not active).

For `CN(C)c1ccc(/C=C2\CCC/C(=C\c3ccccc3)C2=O)cc1`, in [1], the half-maximal activity concentration (AC50) is 3.81 µM (active).

`CN(CC(=O)Nc1cccc(F)c1)C(=O)c1ccc(-c2ccc(Cl)cc2)o1`: the CC50 in [2] was 23.1 µM (active).

For `CCOC(=O)c1cnc2c(OC)cccc2c1N1CCN(c2ccccc2OC)CC1`, the figures for the EC50 in experiment [5], in experiment [6] and in experiment [7] were 11.4 µM (active), > 120 µM (not active) and 8.6 µM (active), respectively.

Turning to `Nc1n[nH]c(N)c1N=Nc1ccc2c(c1)OCO2`, the EC50 in experiment [3] and in experiment [4] was > 60 µM (not active) throughout. For the same compound, the IC50 in [10] was 30.1 µM (active).

With `Cc1c(Cl)cccc1N=C(S)N(Cc1cccs1)C1CCCC1`, the EC50 in experiment [5], in experiment [6] and in experiment [7] was > 120 µM (not active) in each case.
